Source: patent US20200276181A1, “THIENOISOQUINOLINES AND THEIR DERIVATIVES FOR TARGETING TUBULIN, CH-TOG, AURORA A KINASE, TPX2, CDK5RAP2 AND/OR ASPM” (VALORBEC, SEC, priority 2017, published 2020)
pIC50: −log10 of the molar value.

Tests used:
[1] = tested on: A549 cells; assay: IC50 of derivatives (Table 5); type: cell-based, human; conditions: for pIC50: Table 5, cell line only named in b213 (A549)
[2] = tested on: HeLa (cervical adenocarcinoma) cells; assay: Cell viability IC50 (Table 3); type: cell-based, human
Description: (§1) To date, 30 variants with different structural modifications have been made. […] In particular, it is shown that C75 causes death in multiple cancer cells with IC50 values in the 100-400 nM range, including breast cancers (MCF7, BT549), lung cancer (A549), colorectal cancer (HCT116) in addition to HeLa cells (cervical cancer).

[3] = tested on: HCT116 spheroids; assay: Multicellular tumour spheroids; type: cell-based; conditions: 10 nM paclitaxel or 250 nM C75 alone, 6 days
Description: FIGS. 5A, 5B, 5C, 5D, 5E, 5F, 5G, 5H, 5I, 5J, 5K, 5L and 5M show how C75 disrupts or reduces the growth of HeLa, HCT116 and A549 spheroids. FIG. 5A) images show HeLa spheroids over time (3 days) before and after treatment with control (1 μM C87; n=10), 250 nM (n=6) or 500 nM (n=10) of C75. The scale bar is 100 μm. FIG. 5B) is a series images of HeLa spheroids after three days of treatment with control (500 nM C87) or 500 nM C75. The spheroids were stained for fluorescein diacetate (to detect live cells) and propidium iodide (to detect dead cells). […] The scale bar is 100 μm. FIG. 5C) is a line graph showing the change in spheroid area (μm^2) for each day and treatment as indicated. Bars show standard deviation and the asterisks are p<0.05 as determined by the student's t test. FIG. 5D) images show HeLa spheroids over 3 days before and after treatment with empty nanoparticles (control; n=3) or 250 nM of nanoparticle-encapsulated C75 (n=3). The scale bar is 100 μm. […] Bars show standard deviation and the asterisks are p<0.05 as determined by the student's t test. FIG. 5F) is a series of images of HCT116 spheroids treated with control (1 μM C87; n=10), 500 nM C75 (n=10) and 1 μM C75 (n=10). FIG. 5G) is a series images of HCT116 spheroids after six days of treatment with control (1 μM C87) or 1 μM C75. The spheroids were stained for fluorescein diacetate (live cells) and propidium iodide (dead cells). […] FIG. 5H) is a line graph showing the growth in surface area (%) of HCT116 spheroids treated with control (1 μM C87), 500 nM C75 and 1 μM C75 after six days. FIG. 5I) is a series of images of A549 spheroids treated with control (1 μM C87, n=6), 500 nM C75 (n=6), and 1 μM C75 (n=6) over 5 days. The scale bar is 100 μm. FIG. 5J) is a series of images of A549 spheroids after six days of treatment with control (750 nM C87) or 1 μM C75. The spheroids were stained for fluorescein diacetate (live cells) and propidium iodide (dead cells). […] Bars show standard deviation and the asterisks are p<0.05 as determined by the student's t test. FIG. 5L) images show A549 spheroids over 6 days before and after treatment with empty nanoparticles (control; n=3) or 500 nM of nanoparticle-encapsulated C75 (n=3). The scale bar is 100 μm. […] Bars show standard deviation and the asterisks are p<0.05 as determined by the student's t test.
FIG. 11A) is a series of images of HCT116 spheroids treated with control (DMSO), 10 nM paclitaxel, 250 nM C75 or both for 6 days. […] The scale bar for the images is 100 μm. […] As shown in the images, adding paclitaxel and C75 in combination led to regression in spheroid size compared to each treatment on its own.
The thienoisoquinoline compounds may also have potential for use in combinatorial therapies. […]

[4] = tested on: A549 cells; assay: Spindle morphology, DAPI and tubulin staining; type: cell-based, human; conditions: 300 nM, 4 hours
Description: FIG. 1A) is a line graph showing changes in the percentage of viable HFF-1, HeLa, A549 and HCT 116 cells after treatment with a range of C75 concentrations for 3 population doubling times (N=3). […] FIG. 1C) is a line graph showing the percentage of HeLa and HFF1 cells in mitosis after treatment with various concentrations of C75 for 8 hours. The bars indicate standard deviation. FIG. 1D) is a series of images showing cells that were fixed and co-stained for tubulin (microtubules) and DAPI (DNA). […] The scale bar for the cells is 10 μm. […] FIG. 1F) is a cartoon schematic showing the key features of a metaphase cell.

[5] = tested on: MCF7, BT549, A549, HCT116, HeLa cells; assay: Viability in cancer vs non-cancer cell lines, summary of Table 3; type: cell-based, human
Description: as §1

Compound | pIC50 [1] | pIC50 [2] | also measured
Cc1ccc(S(=O)(=O)N2Cc3ccccc3-c3sc(Br)cc32)cc1 [Compound C74] | < 6.00 | < 6.00 | –
Cc1ccc(S(=O)(=O)N2Cc3ccccc3-c3sc(-c4ccccc4)cc32)cc1 [Compound C71] | < 6.00 | < 6.00 | –
COc1ccc(S(=O)(=O)N2Cc3cccc([N+](=O)[O-])c3-c3sccc32)cc1 [Compound C130] | 6.36 | – | –
Cc1ccc(S(=O)(=O)N2Cc3ccccc3-c3sc(C(=O)O)cc32)cc1 [Compound C143] | < 6.00 | – | –
COc1ccc(S(=O)(=O)N2Cc3ccccc3-c3sc(C=O)c(C)c32)cc1 [Compound C138] | 6.38 | – | –
COc1ccc(S(=O)(=O)N2Cc3ccccc3-c3sc(Cl)c(C)c32)cc1 [Compound C128] | 6.26 | – | –
COc1ccc(S(=O)(=O)N2Cc3ccccc3-c3sc(Br)c(C)c32)cc1 [Compound C139] | < 6.00 | – | –
Cc1cccc(S(=O)(=O)N2Cc3ccccc3-c3sc(Br)cc32)c1 [Compound C93] | – | < 6.00 | –
COc1ccc(S(=O)(=O)N2Cc3ccccc3-c3scc(C)c32)cc1 [Compound C127] | 6.20 | – | –
O=S(=O)(c1ccc(C(F)(F)F)cc1)N1Cc2ccccc2-c2sc(Br)cc21 [Compound C200] | < 6.00 | < 6.00 | –
COc1ccc(S(=O)(=O)N2Cc3cc4c(cc3-c3sccc32)OCO4)cc1 [Compound C300] | < 6.00 | – | –
O=S(=O)(c1ccc(C(F)(F)F)cc1)N1Cc2ccccc2-c2sccc21 [Compound C108] | < 6.00 | < 6.00 | –
COc1ccc(S(=O)(=O)N2Cc3c(Br)ccc(N)c3-c3sc(Br)cc32)cc1 [Compound C133] | < 6.00 | – | –
COc1ccc(S(=O)(=O)N2Cc3cccc([N+](=O)[O-])c3-c3sc(Br)cc32)cc1 [Compound C131] | 6.10 | – | –
COc1ccc(S(=O)(=O)N2Cc3cc4c(cc3-c3sc(Br)cc32)OCO4)cc1 [Compound C301] | < 6.00 | – | –
CC(=O)O[C@H]1C(=O)[C@@]2(C)[C@H]([C@H](OC(=O)c3ccccc3)[C@]3(O)C[C@H](OC(=O)[C@H](O)[C@@H](NC(=O)c4ccccc4)c4ccccc4)C(C)=C1C3(C)C)[C@]1(OC(C)=O)CO[C@@H]1C[C@@H]2O [paclitaxel, reference compound] | – | – | spheroid growth, single drug [3]: failed to grow
COc1ccc(S(=O)(=O)N2Cc3cccc(N)c3-c3sccc32)cc1 [Compound C132] | < 6.00 | – | –
COc1ccc(S(=O)(=O)N2Cc3ccccc3-c3sc(C=O)cc32)cc1 [Compound C140] | 6.58 | – | efficacy relative to C75 ([1]; A549 cells): higher efficacy; spindle phenotype [4]: causes spindle phenotypes similar to C75
COc1ccc(S(=O)(=O)N2Cc3ccccc3-c3sc(C(=O)O)cc32)cc1 [Compound C141] | < 6.00 | – | –
Cc1ccc(S(=O)(=O)N2Cc3ccccc3-c3sccc32)cc1 [Compound C91] | – | – | pIC50 ([1]; Homo sapiens): < 6.00; efficacy (effect on viability) in cancer cells vs. non-cancer cells [5]: higher efficacy
Cc1ccc(S(=O)(=O)N2Cc3ccccc3-c3sc(C=O)cc32)cc1 [Compound C142] | 6.34 | – | –
COc1ccc(S(=O)(=O)N2Cc3ccccc3-c3sc(Cl)cc32)cc1 [Compound C208] | 6.36 | 6.69 | –
CC(C)(C)c1ccc(S(=O)(=O)N2Cc3ccccc3-c3sccc32)cc1 [Compound C109] | < 6.00 | – | –
CC(C)(C)c1ccc(S(=O)(=O)N2Cc3ccccc3-c3sc(Br)cc32)cc1 [Compound C201] | < 6.00 | < 6.00 | –
Cc1cccc(S(=O)(=O)N2Cc3ccccc3-c3sccc32)c1 [Compound C39] | < 6.00 | < 6.00 | –
